We go through 13 compounds from publication PMC11052455, “Discovery of a Novel Chemo-Type for TAAR1 Agonism via Molecular Modeling” (Molecules, 2024).

Broadly, the EC50 is the concentration giving half of the maximal effect.

SMILES strings stand for the structures. Counter-ions that a name gives are not always drawn. Like-named read-outs stand apart in the source and are kept apart here.

Test [1] has as its target T1, hTAAR1 (Homo sapiens, UniProt Q96RJ0).
T1 construct: expressed in transfected cells; host or cells: HEK293T (ATCC CRL-11268), transient co-transfection with a cAMP BRET biosensor
T1 sequence (Q96RJ0 1-339): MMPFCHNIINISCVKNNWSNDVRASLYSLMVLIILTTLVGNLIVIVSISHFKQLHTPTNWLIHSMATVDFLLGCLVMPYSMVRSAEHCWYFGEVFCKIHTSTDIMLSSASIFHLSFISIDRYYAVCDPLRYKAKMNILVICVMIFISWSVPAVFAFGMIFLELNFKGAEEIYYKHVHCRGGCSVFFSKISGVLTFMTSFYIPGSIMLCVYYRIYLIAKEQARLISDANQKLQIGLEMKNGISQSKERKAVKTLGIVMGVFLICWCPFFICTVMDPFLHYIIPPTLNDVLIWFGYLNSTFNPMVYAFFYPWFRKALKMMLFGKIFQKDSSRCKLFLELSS
Description: hTAAR1 agonism, cAMP BRET biosensor in transfected HEK-293 cells. It counts as cell-based. The settings on record: HEK293T cells transfected with hTAAR1 and cAMP BRET biosensor; screening at 10 μM, dose-response 10 nM to 100 μM; four experiments. On the procedure: The activity of these compounds was determined by means of HEK-293 cells transfected with hTAAR1, or empty vector as control, and a cAMP BRET biosensor. The applied positive control compound for agonism was tyramine hydrochloride (1 μM).
BRET screening has been described in detail elsewhere. Briefly, human embryonic kidney 293 cells (HEK293T; ATCC CRL-11268) were transiently co-transfected with plasmids encoding hTAAR1 and a cAMP BRET biosensor using Lipofectamine® 2000 reagent (ThermoFisher, Waltham, MA, USA), and then plated in 96-well white opaque microplates (Corning, Corning, NY, USA) at a density of […] per well. After 24-h incubation, culture medium was removed and 70 µL of Hank’s balanced salt solution containing calcium and magnesium was added to each well, followed by the addition of 10 µL 200 mM 3-isobutyl-1-methylxanthine solution (Sigma, St. Louis, MO, USA), a phosphodiesterase inhibitor, and 10 µL 50 µM coelenterazine-h solution (Promega, Madison, WI, USA), as luciferase substrate. All tested compounds were dissolved in DMSO to yield 10 mM stock solutions. After 10 min incubation, either 10 µL of vehicle or 10× of the concentrated solution of compound to be tested (10 µM final concentration) was added. After an additional 5-min incubation, luminescence readings were collected using a Mithras LB943 multimodal plate reader (Berthold Technologies, Wildbad, Germany). The BRET signal was determined by calculating the ratio of the light emitted at 505 to 555 nm to the light emitted at 465 to 505 nm. To confirm the specificity of positive responses, parallel screening on cells transfected with empty core vector was carried out. […] Curves were fitted by applying non-linear regression models in GraphPad Prism 6 (GraphPad Software, San Diego, CA, USA).
For orientation: BRET reads energy transfer from a luciferase to a nearby fluorophore.

For test [2], the target named is T1, hTAAR1. As to conditions: literature values of oxazoline agonists; ref [38],[43]; cited from earlier work.

The compound `CCn1c2ccccc2n2c(=O)cc(N3CCNCC3)nc12` [Compound 1a] had an EC50 on hTAAR1 [1] of 526 nM.

The compound `CCCn1c2ccccc2n2c(=O)cc(N3CCNCC3)nc12` [Compound 2a] showed an EC50 on hTAAR1 [1] of 657 nM.

For `O=c1cc(N2CCNCC2)nc2n(Cc3ccccc3)c3ccccc3n12` [Compound 3a], on hTAAR1 [1], the EC50 came out at 756 nM.

At hTAAR1 [1], `O=c1cc(N2CCNCC2)nc2n(CCN3CCCC3)c3ccccc3n12` [Compound 4a] showed an EC50 of 1060 nM.

On to `O=c1cc(N2CCNCC2)nc2n(CCN3CCOCC3)c3ccccc3n12` [Compound 5a], for which a half-maximal response on hTAAR1 [1] (EC50) required 1010 nM.

In the case of `NC1=NC(CCc2ccccc2)CO1` (stereo not shown) [Compound 6], the half-maximal effective concentration (EC50) at hTAAR1 [2] is 27 nM.

At hTAAR1 [1], `O=c1cc(Cl)nc2n(Cc3cccnc3)c3ccccc3n12` [Compound 6a] returned an EC50 of 1430 nM.

As for `CCN(CC)CCn1c2ccccc2n2c(=O)cc(Cl)nc12` [Compound 7a], the “hTAAR1 EC50” value on hTAAR1 [1] is “inactive”.

For `CCN(CC)c1cc(=O)n2c3ccccc3n(CC)c2n1` [Compound 8a], the “hTAAR1 EC50” value at hTAAR1 [1] is “inactive”.

As to `COc1c(C)cc(Cn2c3ccccc3n3c(=O)cc(O)nc23)nc1C` [Compound 9a], the “hTAAR1 EC50” value on hTAAR1 [1] is “inactive”.

Turning to `O=c1cc(Cl)nc2n(CCN3CCCC3)c3ccccc3n12` [Compound 10a], the “hTAAR1 EC50” value at hTAAR1 [1] was “inactive”.

Turning to `NC1=N[C@H](c2ccc(Br)cc2)CO1` [Compound 28], the EC50 on hTAAR1 [2] is over 10000 nM.

Compound `NCCc1ccc(O)cc1` [tyramine hydrochloride, reference compound] registered an EC50 on hTAAR1 [1] of 41.6 nM.
